Source: ChEMBL document CHEMBL2331147, “Scutellarin from Scutellaria baicalensis suppresses adipogenesis by upregulating PPARα in 3T3-L1 cells” (J Nat Prod, 2013)
The source made the active and inactive calls. No cut-off for these calls is given here.

What was measured:
3T3-L1 [1] = experiment: Antiadipogenic activity in mouse 3T3L1 cells assessed as downregulation of PPARgamma mRNA expression after 8 days by RT-PCR analysis; format: functional, cell-based
3T3-L1 [2] = experiment: Cytotoxicity against mouse 3T3L1 cells assessed as cell viability at < 100 uM after 48 hrs by MTT assay; format: cell-based; settings: 3t3-l1, 48 h
3T3-L1 [3] = experiment: Effect on PPARdelta mRNA expression in mouse 3T3L1 cells at 10 to 100 uM after 8 days by RT-PCR analysis; format: functional, cell-based
3T3-L1 [4] = experiment: Antiadipogenic activity in mouse 3T3L1 cells assessed as downregulation of LPL mRNA expression at 10 to 100 uM after 8 days by RT-PCR analysis; format: functional, cell-based
3T3-L1 [5] = experiment: Antiadipogenic activity in mouse 3T3L1 cells assessed as upregulation of PPARalpha mRNA expression after 8 days by RT-PCR analysis; format: functional, cell-based
3T3-L1 [6] = experiment: Antiadipogenic activity in mouse 3T3L1 cells assessed as decrease in intracellular lipid accumulation incubated for 8 days followed by compound wash out measured for 60 mins by Oil Red O staining-based phase contrast microscopic analysis; format: functional, cell-based
3T3-L1 [7] = experiment: Antiadipogenic activity in mouse 3T3L1 cells assessed as downregulation of C/EBPalpha mRNA expression after 8 days by RT-PCR analysis; format: functional, cell-based
3T3-L1 [8] = experiment: Downregulation of C/EBPbeta mRNA expression in mouse 3T3L1 cells at 10 to 100 uM after 8 days by RT-PCR analysis; format: functional, cell-based

## O=C(O)[C@H]1O[C@@H](Oc2cc3oc(-c4ccc(O)cc4)cc(=O)c3c(O)c2O)[C@H](O)[C@@H](O)[C@@H]1O [SCUTELLARIN]
3T3-L1 [1]
  Activity: Dose-dependent effect
3T3-L1 [2]
  Activity: Non-toxic
3T3-L1 [3]
  Activity: inactive
3T3-L1 [4]
  Activity: Active
3T3-L1 [5]
  Activity: Dose-dependent effect
3T3-L1 [6]
  Activity: Dose-dependent effect
3T3-L1 [7]
  Activity: Dose-dependent effect
3T3-L1 [8]
  Activity: inactive
